Measured values taken from patent US11813339B2, “Method of use for therapeutic bone agents” (IGL Pharma, Inc., priority 2017, dated 2023).
Where two headings read alike, the source gives them in different places.

Tests used:
[1] = tested on: prostate and breast bone metastases; conditions: cited from earlier work; for long-lived impurities (Eu isotopes) in patients on multiple doses: high-resolution gamma spectroscopy whole body counters
[2] = tested on: tumor; assay: Ascending dose trial in dogs (MTD); format: in vivo; conditions: for maximum tolerated dose: dogs
Excerpt: The maximum tolerated dose is 1.75-2.0 mCi/kg; whereas for Sm-153-EDTMP the maximum tolerated dose was 1.0 mCi/kg. Stable or improved indices were experienced by 7 of 12 dogs.

[3] = Residual activity in bone cancer patients after repeated doses, NaI crystal detection; format: in vivo; conditions: 30 mCi doses, after receiving 7 doses (of 10); activity due to long-lived radionuclidic impurities
Excerpt: The Sm-153 prepared as in Example A was used to prepare doses of Sm-153-EDTMP. These doses were used to treat patients suffering from bone cancer. Patients were repeatedly treated (10 times) with 30 mCi of Sm-153-EDTMP as prepared in this example. The first 5 doses were given at 3 month intervals, and the second five doses given at 6 month intervals. After the decay of Sm-153, a NaI crystal was used to detect the amount of residual activity in the patients. […] The activity was due to long-lived radionuclidic impurities created during the target irradiation process.

[4] = tested on: osteosarcoma; assay: Treatment of dogs with osteosarcoma with LSA Sm-153-DOTMP; format: in vivo
Method: Seven dogs with osteosarcoma were treated with the Sm-153-DOTMP made from LSA Sm-153 of Example 1 at 1 mCi/kg.

[5] = about 550 patients, repeated 30 mCi doses

Substance | lesion response [1, 5] | survival [1, 5] | long-lived impurities (Eu isotopes) in patients on multiple doses [1] | long-lived impurities (Eu isotopes) in patients on multiple doses ([1]; listed as HSA Sm-153-EDTMP) | maximum tolerated dose [2] | residual activity detected in patients after decay of Sm-153 [3] | myelosuppression relative to similar dogs treated with 1 mCi/kg of HSA Sm-153-EDTMP ([4]; evidenced from the nadir in platelets and neutrophils) | uptake in the tumor ([4]; seven dogs with osteosarcoma, 1 mCi/kg) | stable or improved indices ([2]; ascending dose trial) | uptake in tumor ([2]; ascending dose trial of 13 dogs starting at 1.5 mCi/kg)
Sm-153-ethylenediaminetetramethylenephosphonic acid [Sm-153-EDTMP] | lesion regression | improved survival | increases with every treatment | apparent | 1.0 mCi/kg | significant amounts of activity detected in patients, which increased with each dose given thereafter | – | – | – | –
Sm-153 1,4,7,10-tetraazacyclododecanetetramethylenephosphonic acid [LSA Sm-153-DOTMP] | – | – | – | – | 1.75-2.0 mCi/kg | – | about one half | uptake in the tumor for all dogs | 7 of 12 | uptake in tumor for all seven dogs tested
